Measurements reported in BigSolDB 2.1.

C/C=C/C=C/C(=O)O
solubility (mole fraction)
Settings	285.15 K	289.15 K	293.15 K	298.15 K	303.15 K	308.15 K	312.65 K	318.15 K	323.15 K
in MTBE	0.0403	0.0439	0.0512	0.0577	0.0693	0.0785	0.093	0.109	0.121
in acetone	0.0476	0.0528	0.0613	0.0701	0.0871	0.0968	0.115	0.14	0.156
in acetonitrile	0.00625	0.00746	0.0098	0.0112	0.0149	0.0172	0.0196	0.0248	0.0306
in ethanol	0.0442	0.0488	0.0572	0.0643	0.0747	0.0872	0.101	0.121	0.143
in ethyl acetate	0.0266	0.0314	0.0357	0.0452	0.0542	0.0626	0.0713	0.0862	0.102
in isopropanol	0.0383	0.0444	0.053	0.0613	0.0684	0.0753	0.086	0.0965	0.103
in methanol	0.0328	0.0392	0.0457	0.0553	0.0643	0.0749	0.083	0.0934	0.106
in n-butanol	0.0619	0.0738	0.0844	0.0973	0.108	0.121	0.135	0.154	0.173
